Consider 13 compounds from PMC9233935 (Journal of medicinal chemistry, 2022).

For one test, the target named is Mtb gyrase (Mycobacterium tuberculosis, UniProt P9WG45+P9WG47). In words: biochemical. Format: biochemical.
Test [1] concerns S. aureus ATTC 25923.
Test [2] concerns gyrA hypomorph (gyrA-FDAS-TetON-1). The test is classed as cell-based. The note with it: fold-hypersensitivity.
In test [3] the test system is S. aureus ATTC 25923. In words: microbe, parasite or virus in culture. The note with it: Staphylococcus aureus, ATTC25923, read-out: Sau MIC.
In the next test the test system is M. tuberculosis H37Rv. As to the kind of experiment: microbe, parasite or virus in culture. The test is classed as cell-based, Mycobacterium tuberculosis.

Values after ≈ are worked out from the molar mass of the structure shown.

Chain of Mtb gyrase (P9WG45 whole entry, looked up): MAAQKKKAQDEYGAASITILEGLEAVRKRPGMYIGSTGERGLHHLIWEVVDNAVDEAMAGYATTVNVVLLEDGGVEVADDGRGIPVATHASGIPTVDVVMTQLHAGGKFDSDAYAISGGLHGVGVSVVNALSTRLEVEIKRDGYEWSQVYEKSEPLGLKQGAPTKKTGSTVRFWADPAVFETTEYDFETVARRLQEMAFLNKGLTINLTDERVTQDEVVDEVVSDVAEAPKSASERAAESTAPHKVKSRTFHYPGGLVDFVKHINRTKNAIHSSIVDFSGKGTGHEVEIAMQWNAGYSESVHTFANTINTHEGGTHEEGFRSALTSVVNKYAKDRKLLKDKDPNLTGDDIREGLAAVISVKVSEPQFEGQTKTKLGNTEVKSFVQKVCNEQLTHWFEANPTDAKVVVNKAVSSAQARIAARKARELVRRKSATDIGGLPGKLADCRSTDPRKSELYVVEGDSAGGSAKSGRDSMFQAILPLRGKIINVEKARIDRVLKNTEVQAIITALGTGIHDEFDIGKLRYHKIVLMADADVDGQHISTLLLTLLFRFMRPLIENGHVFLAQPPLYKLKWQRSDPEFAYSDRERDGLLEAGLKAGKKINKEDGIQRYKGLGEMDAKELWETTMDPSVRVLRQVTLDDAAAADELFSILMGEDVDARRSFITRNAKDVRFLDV
Chain of Mtb gyrase (P9WG47 whole entry, looked up): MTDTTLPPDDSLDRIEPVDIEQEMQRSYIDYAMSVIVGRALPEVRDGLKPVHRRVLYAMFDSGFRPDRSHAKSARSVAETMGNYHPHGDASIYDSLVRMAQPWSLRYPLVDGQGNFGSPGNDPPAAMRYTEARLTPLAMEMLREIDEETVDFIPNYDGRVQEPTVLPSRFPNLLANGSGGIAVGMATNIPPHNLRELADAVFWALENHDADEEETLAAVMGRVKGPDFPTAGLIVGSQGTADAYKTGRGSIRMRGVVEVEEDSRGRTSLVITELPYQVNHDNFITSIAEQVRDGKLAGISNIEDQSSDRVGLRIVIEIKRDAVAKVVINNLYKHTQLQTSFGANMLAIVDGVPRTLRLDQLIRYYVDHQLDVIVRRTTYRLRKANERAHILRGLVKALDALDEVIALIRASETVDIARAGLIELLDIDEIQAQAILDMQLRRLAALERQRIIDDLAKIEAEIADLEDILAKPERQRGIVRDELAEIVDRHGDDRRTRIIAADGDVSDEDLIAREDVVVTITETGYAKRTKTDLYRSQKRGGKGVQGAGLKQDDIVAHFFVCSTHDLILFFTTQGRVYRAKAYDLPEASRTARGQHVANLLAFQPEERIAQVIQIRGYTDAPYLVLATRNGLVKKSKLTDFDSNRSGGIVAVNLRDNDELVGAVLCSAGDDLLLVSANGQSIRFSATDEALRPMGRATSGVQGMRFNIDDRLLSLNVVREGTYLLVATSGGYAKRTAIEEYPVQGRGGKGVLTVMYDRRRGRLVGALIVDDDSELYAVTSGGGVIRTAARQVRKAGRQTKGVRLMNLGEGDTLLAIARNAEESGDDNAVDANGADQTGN

As for `C[C@@H]1CN2c3c(cc4c(N5CC[C@H](O)C5)noc4c3F)CC3(C(=O)NC(=O)NC3=O)[C@H]2[C@H](C)O1` [Compound 8, (2R,4S,4aS)-11-fluoro-8-((S)-3-hydroxypyrrolidin-1-yl)-2,4-dimethyl-1,2,4,4a-tetrahydro-2’H,6H-spiro[isoxazolo[4,5-g][1,4]oxazino[4,3-a]quinoline-5,5’-pyrimidine]-2’,4’,6’(1’H,3’H)-trione], the “Mtb gyrase IC50 fold higher (less potent) than moxifloxacin” value (“Mtb gyrase IC50 fold higher” below) at Mtb gyrase is on record as at most 2 fold. For the same compound, the “fold less active against S. aureus than zoliflodacin” value in the test on S. aureus ATTC 25923 [1] was above 200 fold. In addition, in test [2], the “Ratio (WT/hypomorph) MIC” value came to 2.5 and the “Ratio (WT/hypomorph) MIC50” value was 3.6.

Take `C[C@@H]1CN2c3c(cc4c(OC[C@H]5CCC(=O)N5)noc4c3F)CC3(C(=O)NC(=O)NC3=O)[C@H]2[C@H](C)O1` [Compound 24, (2R,4S,4aS)-11-fluoro-2,4-dimethyl-8-(((R)-5-oxopyrrolidin-2-yl)methoxy)-1,2,4,4a-tetrahydro-2’H,6H-spiro[isoxazolo[4,5-g][1,4]oxazino[4,3-a]quinoline-5,5’-pyrimidine]-2’,4’,6’(1’H,3’H)-trione]: in the test with S. aureus ATTC 25923 [3], the MIC was above 125 µM.

Take `C[C@@H]1CN2c3c(cc4c(N5CC[C@@H](O)C5)noc4c3F)CC3(C(=O)NC(=O)NC3=O)[C@H]2[C@H](C)O1` [Compound 9, (2R,4S,4aS)-11-fluoro-8-((R)-3-hydroxypyrrolidin-1-yl)-2,4-dimethyl-1,2,4,4a-tetrahydro-2’H,6H-spiro[isoxazolo[4,5-g][1,4]oxazino[4,3-a]quinoline-5,5’-pyrimidine]-2’,4’,6’(1’H,3’H)-trione]: the MIC with S. aureus ATTC 25923 [3] is 64 µM (≈ 30.3 µg/mL).

`C[C@@H]1CN2c3c(cc4c(N5C[C@H](O)[C@@H](O)C5)noc4c3F)CC3(C(=O)NC(=O)NC3=O)[C@H]2[C@H](C)O1` [Compound 11, (2R,4S,4aS)-8-((3S,4S)-3,4-dihydroxypyrrolidin-1-yl)-11-fluoro-2,4-dimethyl-1,2,4,4a-tetrahydro-2’H,6H-spiro[isoxazolo[4,5-g][1,4]oxazino[4,3-a]quinoline-5,5’-pyrimidine]-2’,4’,6’(1’H,3’H)-trione]: in the test with S. aureus ATTC 25923 [3], the MIC is above 125 µM.

For the compound `C[C@@H]1CN2c3c(cc4c(N5CC[C@H](O)C5)noc4c3F)CC3(C(=O)NC(=O)NC3=O)[C@H]2[C@H](C)N1C#N` [Compound 40, (2R,4S,4aS)-11-fluoro-8-((S)-3-hydroxypyrrolidin-1-yl)-2,4-dimethyl-2’,4’,6’-trioxo-1,1’,2,3’,4,4a,4’,6’-octahydro-2’H,3H,6H-spiro[isoxazolo[4,5-g]pyrazino[1,2-a]quinoline-5,5’-pyrimidine]-3-carbonitrile], the half-maximal inhibitory concentration (IC50) (as a rule, the concentration that inhibits the measured activity by half) on Mtb gyrase was 19 µM. In test [2], the “Ratio (WT/hypomorph) MIC” value is on record as 2.0 and the “Ratio (WT/hypomorph) MIC50” value worked out at 3.1. The MIC in the test with S. aureus ATTC 25923 [3] is above 125 µM.

As for `C[C@@H]1CN2c3c(cc4c(OC[C@@H]5COC(=O)N5)noc4c3F)CC3(C(=O)NC(=O)NC3=O)[C@H]2[C@H](C)O1` [Compound 28, (2R,4S,4aS)-11-fluoro-2,4-dimethyl-8-(((R)-2-oxooxazolidin-4-yl)methoxy)-1,2,4,4a-tetrahydro-2’H,6H-spiro[isoxazolo[4,5-g][1,4]oxazino[4,3-a]quinoline-5,5’-pyrimidine]-2’,4’,6’(1’H,3’H)-trione], in the test on S. aureus ATTC 25923 [3], the MIC came to 63 µM (≈ 31.7 µg/mL).

For `C[C@@H]1CN2c3c(cc4c(N5C[C@@H](O)[C@@H](O)C5)noc4c3F)CC3(C(=O)NC(=O)NC3=O)[C@H]2[C@H](C)O1` [Compound 12, (2R,4S,4aS)-8-((3R,4S)-3,4-dihydroxypyrrolidin-1-yl)-11-fluoro-2,4-dimethyl-1,2,4,4a-tetrahydro-2’H,6H-spiro[isoxazolo[4,5-g][1,4]oxazino[4,3-a]quinoline-5,5’-pyrimidine]-2’,4’,6’(1’H,3’H)-trione], the MIC in the test with S. aureus ATTC 25923 [3] is above 125 µM.

For the compound `C[C@@H]1CN2c3c(cc4c(N5C[C@@H](O)[C@H](O)C5)noc4c3F)CC3(C(=O)NC(=O)NC3=O)[C@H]2[C@H](C)O1` [Compound 10, (2R,4S,4aS)-8-((3R,4R)-3,4-dihydroxypyrrolidin-1-yl)-11-fluoro-2,4-dimethyl-1,2,4,4a-tetrahydro-2’H,6H-spiro[isoxazolo[4,5-g][1,4]oxazino[4,3-a]quinoline-5,5’-pyrimidine]-2’,4’,6’(1’H,3’H)-trione], the “Mtb gyrase IC50 fold higher” value at Mtb gyrase was at most 2 fold. In addition, in test [2], the “Ratio (WT/hypomorph) MIC” value was 2.1 and the “Ratio (WT/hypomorph) MIC50” value is on record as 2.9.

Take “(2R,4S,4aS)-11-fluoro-2,4-dimethyl-8-((S)-3-(methylamino)pyrrolidin-1-yl)-1,2,4,4a-tetrahydro-2’H-spiro[isoxazolo[5’,4’:4,5]benzo[1,2-b][1,4]oxazino[4,3-d][1,4]oxazine-5,5’-pyrimidine]-2’,4’,6’(1’H,3’H)-trione [Compound 17]”: the “Sau MIC” value with S. aureus ATTC 25923 [1] was 125 µM. Also, in the test with M. tuberculosis H37Rv, the “Mtb MIC” value was 63 µM and the “fold higher Mtb MIC compared to 8” value was 9 to16 fold.

On to `C[C@@H]1CN2c3c(cc4c(N5CC[C@H](C#N)C5)noc4c3F)CC3(C(=O)NC(=O)NC3=O)[C@H]2[C@H](C)O1` [Compound 19, (S)-1-((2R,4S,4aS)-11-fluoro-2,4-dimethyl-2’,4’,6’-trioxo-1,1’,2,3’,4,4a,4’,6’-octahydro-2’H,6H-spiro[isoxazolo[4,5-g][1,4]oxazino[4,3-a]quinoline-5,5’-pyrimidin]-8-yl)pyrrolidine-3-carbonitrile], for which the “Mtb gyrase IC50 fold higher” value on Mtb gyrase is recorded as at most 2 fold.

As for `C[C@@H]1CN2c3c(cc4c(N5CC[C@H](N)C5)noc4c3F)CC3(C(=O)NC(=O)NC3=O)[C@H]2[C@H](C)O1` [Compound 16, (2R,4S,4aS)-8-((S)-3-aminopyrrolidin-1-yl)-11-fluoro-2,4-dimethyl-1,2,4,4a-tetrahydro-2’H,6H-spiro[isoxazolo[4,5-g][1,4]oxazino[4,3-a]quinoline-5,5’-pyrimidine]-2’,4’,6’(1’H,3’H)-trione], at Mtb gyrase, the “Mtb gyrase IC50 fold higher” value is “around 2 fold”. In the test on M. tuberculosis H37Rv, the “fold higher Mtb MIC compared to 8” value came to 9 to16 fold.

With `C[C@@H]1CN2c3c(cc4c(N5CCC[C@@H](O)C5)noc4c3F)CC3(C(=O)NC(=O)NC3=O)[C@H]2[C@H](C)O1` [Compound 22, (2R,4S,4aS)-11-fluoro-8-((R)-3-hydroxypiperidin-1-yl)-2,4-dimethyl-1,2,4,4a-tetrahydro-2’H,6H-spiro[isoxazolo[4,5-g][1,4]oxazino[4,3-a]quinoline-5,5’-pyrimidine]-2’,4’,6’(1’H,3’H)-trione], the MIC in the test with S. aureus ATTC 25923 [3] was 94 µM (≈ 45.8 µg/mL).

Take `Cc1nnc(-c2noc3c(F)c4c(cc23)CC2(C(=O)NC(=O)NC2=O)[C@H]2[C@H](C)O[C@H](C)CN42)o1` [Methyl-oxadiazole 5, reference compound]: the “fold more potent as inhibitor of Mtb gyrase than moxifloxacin” value on Mtb gyrase stood at 5 fold. Besides, the “fold less active against Mtb than moxifloxacin” value in the test with M. tuberculosis H37Rv is listed as 10 fold. Moreover, the MIC with M. tuberculosis H37Rv (Mycobacterium tuberculosis, H37RV, read-out: Mtb MIC) was 1.7 µM (≈ 0.8 µg/mL).
